Test results published in ChEMBL document CHEMBL1255450, “Detection of E119V and E119I mutations in influenza A (H3N2) viruses isolated from an immunocompromised patient: challenges in diagnosis of oseltamivir resistance” (Antimicrob Agents Chemother, 2010).

Assays:
[1] = tested on: Influenza A virus; assay: Antiviral activity against Influenza A virus (A/Washington/01/2007 (H3N2)) measured in MDCK cells by NA inhibition assay; assay type: functional, organism-based
[2] = tested on: Influenza A virus; assay: Antiviral activity against Influenza A virus (A/Washington/01/2007 (H3N2)) measured in MDCK cells by fluorescent NA inhibition assay; assay type: functional, organism-based

In the case of CCC(CC)[C@H](NC(C)=O)[C@@H]1[C@H](O)[C@@H](C(=O)O)C[C@H]1NC(=N)N [PERAMIVIR ANHYDROUS], the IC50 [1] is reported as 0.28 nM and the IC50 [2] is reported as 0.5 nM.
CCOC(=O)C1=C[C@@H](OC(CC)CC)[C@H](NC(C)=O)[C@@H](N)C1 [OSELTAMIVIR] showed an IC50 [1] of 0.16 nM and an IC50 [2] of 0.44 nM.
C/C=C\[C@@H]1C[C@H](C(=O)O)N[C@H]1[C@@H](NC(C)=O)[C@](C)(CCC)OC gave an IC50 [1] of 0.74 nM and an IC50 [2] of 1.22 nM.
